Experimental data reported in US20260130885A1, “ANTIMICROBIAL COMPOSITIONS, PHARMACEUTICAL COMPOSITIONS AND USE THEREOF” (priority 2022, published 2026).
Values after ≈ are worked out from the molar mass of the structure shown. Read-outs that look alike come from different tables or passages of the source.

Tests used:
Type in all cases: cell-based, Staphylococcus aureus
MRSA USA300 = experiment: Antibacterial activity assay (MIC by broth microdilution, MBC by subculture)
Description: The antimicrobial activity was based on MIC and MBC; MIC is the minimum inhibitory concentration and MBC is the minimum bactericidal concentration. The MIC of individual test agents against MRSA USA300 strains was determined using the broth microdilution method according to CLSI guidelines. Briefly, overnight bacterial cultures in LB medium were diluted 1:50 in fresh LB medium and incubated at 37° C. until reaching an OD600 of 0.5 to 0.6. Bacterial suspensions were diluted to a final concentration of 5×10^5 cfu/mL in fresh CAMHB and then exposed to each test agent at increasing doses in triplicate in 96-well plates for 24 hours at 37° C. The MIC of each agent was defined as the lowest concentration without visible bacterial growth. […] The lowest broth dilution that had no viable bacteria was considered the MBC.
Then, the combination effect was measured by calculating their corresponding fractional inhibitory concentration index (FICI) with the equation ΣFIC (FICi)=FICA+FICB=(CombA/MICA)+(CombB/MICB), where MICA and MICB are the MICs of drugs A and B alone, respectively, and CombA and CombB are the concentrations of drugs A and B in combination, respectively. […] was defined as an FICI≤0.5, no interaction was defined as an FICI>0.5-4.0, and antagonism was defined as an FICI>4.

S. aureus ATCC29213 = experiment: Antibacterial activity assay (MIC, broth microdilution); conditions: for MIC: Staphylococcus aureus
S. aureus NCTC8325 = experiment: as above; conditions: for MIC: Staphylococcus aureus
MRSA ATCC33592 = experiment: as above; conditions: for MIC: Staphylococcus aureus
MRSA ATCC43300 = experiment: as above; conditions: for MIC: Staphylococcus aureus
MRSA ATCC49476 = experiment: as above; conditions: for MIC: Staphylococcus aureus
biofilms of MRSA USA300 = experiment: Biofilm eradication assay
Description: (§1) FIG. 2: The biofilms of S. aureus NCTC8325 (the upper left graph) and MRSA USA300 (the upper right graph) were treated with increasing concentrations of blank control (Mock), DHA, daptomycin (DAP), vancomycin (VAN), SC5005, and SC5005 in combination with DHA for 24 hours. The number of viable bacteria was then determined using a cfu assay. The data represent individual experiments and are shown as the mean±SD (n=3 per group). ns, nonsignificant, p>0.05; *p<0.05; **p<0.01; ***p<0.001. (The lower left graph) the biofilms of MRSA USA300 were treated with blank control (Mock) or SC5005 along with 80 mg/L DHA for 1, 3 or 10 minute(s). The viable bacteria in the biofilms harvested and enumerated using a cfu assay. The data represent independent experiments and are shown as mean±SD (n=3 per group). ns, nonsignificant, p>0.05; *p<0.05; **p<0.01; ***p<0.001 (The lower right graph) RAW264.7 cells were exposed to a blank control (Mock) or increasing concentrations of SC5005 and 80 mg/L DHA for […]. The viability of cells was determined by the MTT assay and expressed as a percentage relative to mock (DMSO and ethanol)-treated cells. The data shown are the mean±SD (n=3 per group).
(§2) The eradication activity of daptomycin, vancomycin, experimental acyl compounds and experimental acyl compounds along with fatty acids against biofilms of microorganisms was evaluated as described above. Briefly, bacteria were grown in tryptic soy broth (Becton Dickinson, USA) and biofilms were formed on the pegs of the lid of a 96-well dish immersed in bacterial cultures at 5×10^5 cfu/mL. […] After incubation at 37° C. for 24 hours, the peg-lids were washed and placed onto a new 96-well plate with fresh CAMHB in each well and sonicated for 5 minutes to disrupt the biofilm on the pegs, followed by a cfu assay to assess the number of viable bacteria in each well. To determine the minimum biofilm removal concentration, the 96-well plates were covered with new lids and incubated at 37° C. for 24 hours, and then the viable bacteria in each well were counted using the cfu assay.

[1] = test system: biofilms of S. aureus NCTC8325; experiment: Biofilm eradication assay; conditions: 24 hours; FIG. 2
Description: as §1, §2

MIC (MRSA USA300; +8 mg/L DHA): 0.0038 ng/mL
MIC (MRSA USA300; +8 mg/L DHA, MRSA USA300 (Table 4)): 0.015 ng/mL
MIC (MRSA USA300; Staphylococcus aureus, MRSA / SC5005 / USA300, fatty acid 0 mg/L (SC5005 alone), read-out: MIC SC5005): 250 ng/mL
MIC (MRSA USA300; Staphylococcus aureus, amide compound alone, read-out: MIC): 250 ng/mL
MIC (MRSA USA300; agent alone, MRSA USA300 (Table 4)): 250 ng/mL
MIC (S. aureus ATCC29213; ATCC29213, +8 mg/L DHA): 3.9 ng/mL (≈ 7.48 nM)
MIC (S. aureus ATCC29213; ATCC29213, agent alone): 250 ng/mL (≈ 479 nM)
MIC (S. aureus NCTC8325; NCTC8325, +8 mg/L DHA): 0.0019 ng/mL (≈ 0.00364 nM)
MIC (S. aureus NCTC8325; NCTC8325, agent alone): 250 ng/mL (≈ 479 nM)
MIC (MRSA ATCC33592; +8 mg/L DHA): 0.49 ng/mL (≈ 0.939 nM)
MIC (MRSA ATCC33592; agent alone): 250 ng/mL (≈ 479 nM)
MIC (MRSA ATCC43300; +8 mg/L DHA): 0.24 ng/mL (≈ 0.46 nM)
MIC (MRSA ATCC43300; agent alone): 250 ng/mL (≈ 479 nM)
MIC (MRSA ATCC49476; +8 mg/L DHA): 0.00095 ng/mL (≈ 0.00182 nM)
MIC (MRSA ATCC49476; agent alone): 250 ng/mL (≈ 479 nM)
SMILES: O=C(Nc1ccc(Cl)c(C(F)(F)F)c1)C(CCCl)C(=O)Nc1ccc(Cl)c(C(F)(F)F)c1 [SC5005]
MBC (MRSA USA300; +8 mg/L DHA): 7.8 ng/mL
combination effect (MRSA USA300; MIC, +8 mg/L DHA, MRSA USA300 (Table 4)): (Syn) (Synergy (Syn) was defined as an FICI≤0.5)
MBC (MRSA USA300; Staphylococcus aureus, MRSA / SC5005 / USA300, fatty acid 0 mg/L (SC5005 alone), read-out: MBC SC5005): 2000 ng/mL
MBC (MRSA USA300; Staphylococcus aureus, amide compound alone, read-out: MBC): 2000 ng/mL
combination effect (S. aureus ATCC29213; MIC, +8 mg/L DHA): (Syn) (Synergy (Syn) was defined as an FICI≤0.5)
combination effect (S. aureus NCTC8325; MIC, +8 mg/L DHA): (Syn) (Synergy (Syn) was defined as an FICI≤0.5)
combination effect (MRSA ATCC33592; MIC, +8 mg/L DHA): (Syn) (Synergy (Syn) was defined as an FICI≤0.5)
combination effect (MRSA ATCC43300; MIC, +8 mg/L DHA): (Syn) (Synergy (Syn) was defined as an FICI≤0.5)
combination effect (MRSA ATCC49476; MIC, +8 mg/L DHA): (Syn) (Synergy (Syn) was defined as an FICI≤0.5)
biofilm removing activity (in words) (biofilms of MRSA USA300; 24 hours, FIG. 2): superior biofilm removing activity in comparison with daptomycin and vancomycin
increase of the biofilm removing activity of SC5005 (biofilms of MRSA USA300; DHA concentration 80 mg/L, strain not given): 32 times
biofilm removing activity (in words) [1]: superior biofilm removing activity in comparison with daptomycin and vancomycin
